22 compounds from US8846675B2, “N-linked heterocyclic receptor agonists for the treatment of diabetes and metabolic disorders” (Cymabay Therapeutics, Inc., priority 2007, dated 2014) can be followed below.

This assay addresses T1, IC-GPCR2 (Homo sapiens, UniProt Q8TDV5).
T1 construct: expressed in transfected cells
T1 sequence (Q8TDV5 1-335 S309L): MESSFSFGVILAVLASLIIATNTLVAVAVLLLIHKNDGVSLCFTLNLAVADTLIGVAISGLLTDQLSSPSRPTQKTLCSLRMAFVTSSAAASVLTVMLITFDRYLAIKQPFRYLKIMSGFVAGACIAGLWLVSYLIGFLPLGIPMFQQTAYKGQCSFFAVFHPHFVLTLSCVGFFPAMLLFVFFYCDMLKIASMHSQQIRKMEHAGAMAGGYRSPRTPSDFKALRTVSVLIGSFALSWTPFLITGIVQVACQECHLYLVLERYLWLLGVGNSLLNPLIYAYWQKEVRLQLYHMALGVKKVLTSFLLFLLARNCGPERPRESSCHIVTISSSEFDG
The assay is described as follows: Stimulation of cAMP in CHO cell line stably expressing IC-GPCR2 (HTRF cAMP dynamic kit). Type of assay: cell-based. The note with it: 3 μM compound, relative to maximal activity of 5-Ethyl-2-{4-[4-(4-tetrazol-1-yl-phenoxymethyl)-thiazol-2-yl]-piperidin-1-yl}-pyrimidine (=100%), IC-GPCR2 stably expressing CHO cells, 30 minutes. The procedure: This assay was developed using a stable cell line expressing IC-GPCR-2, generated as follows. IC-GPCR2 (Seq. ID No. 1) was cloned into Gateway pDEST 40vector (Invitrogen), using the Gateway cloning system (invitrogen) according to the manufacturers instructions. A stable cell line was generated by transfecting a 10 cm plate of CHO cells (source) with 8 ug of this construct using Transit-CHO transfection kit (Mirus). CHO cells were plated the day prior to transfection at a density of 3,000,000 cells/plate. Clones were selected using the antibiotic G418 at 500 ug/ml. 23 clones were picked and assayed for the expression of the receptor by measuring changes in intracellular cAMP levels in response to an IC-GPCR2 agonist (Arena 51).
To measure cAMP activity in response to IC-GPCR2 agonist, the clones were plated in 96 well plates at 17500 cells per well. On the day after plating, cells were incubated with the IC-CPCR2 agonist at […] for 30 minutes in Ham's F12 Media (Gibco) with 0.04% DMSO. cAMP was measured using the cAMP dynamic kit from C is Bio (Bedford, Mass.) according to the manufacturers instructions. Briefly, cells were lysed, and cAMP levels determined by competitive immunoassay using D2 labeled cAMP, and europium cryptate tagged anti cAMP antibody. When in close proximity, the D2 and europium cryptate undergo fluorescence resonance energy transfer (FRET), which is measured as a fluorescence ratio (665 nm/620 nm). Unlabelled cAMP in the cell lysatc competed with the D2 labeled cAMP for the europium crypate labeled antibody. The resulting decrease in FRET signal corresponded to intracellular cAMP levels. Fluorescence was read on a BMG Labtech PHERAstar, software version 1.50.
The clone with the greatest response to IC-GPCR2 agonist was selected for the screening assay.
Compounds were dissolved in 100% DMSO to a concentration of […] to provide stock solutions. To determine activity against IC-GPCR2, compounds were incubated with IC-GPCR2 stably expressing cells (described above), at 6-8 concentrations ranging from 0.00003 to 10 micromolar, in 96 well plates, in 50 ul of Hams F12 media for 30 minutes. Cells were plated at 17500 cells per well 1 day before running the assay. All compounds were also screened against the parental CHO cells. cAMP was measured using the cAMP dynamic kit from Cis Bio (Bedford, Mass.), according to the manufacturer's instructions. Briefly, cells were lysed and cAMP levels determined by competitive immunoassay using D2 labeled cAMP, and europium cryptate tagged anti cAMP antibody. When in close proximity, the D2 and europium cryptate undergo fluorescence resonance energy transfer (FRET), which is measured as a fluorescence ratio (665 nm/620 nm). Unlabelled cAMP in the cell lysate competed with the D2 labeled cAMP for the europium crypate labeled antibody. The resulting decrease in FRET signal corresponded to intracellular cAMP levels
To determine percent activity for a tested compound, the FRET signal value obtained at a particular concentration are compared to the Maximal FRET signal value obtained for 5-Ethyl-2-{4-[4-(4-tetrazol-1-yl-phenoxymethyl)-thiazol-2-yl]-piperidin-1-yl}-pyrimidine. The maximal activity of 5-Ethyl-2-{4-[4-(4-tetrazol-1-yl-phenoxymethyl)-thiazol-2-yl]-piperidin-1-yl}-pyrimidine is designated as 100% activity. Typically, the concentration of 5-Ethyl-2-{4-[4-(4-tetrazol-1-yl-phenoxymethyl)-thiazol-2-yl]-piperidin-1-yl}-pyrimidine in the assay was approximately 0.1 μM. The synthesis of 5-Ethyl-2-{4-[4-(4-tetrazol-1-yl-phenoxymethyl)-thiazol-2-yl]-piperidin-1-yl}-pyrimidine is disclosed in co-owned pending U.S. patent application Ser. No. 11/964,461, herein incorporated by reference. Activities of compounds that were tested are shown in Table 1 below and are expressed as % activity at 3 μM compound compared to the maximal activity of 5-Ethyl-2-{4-[4-(4-tetrazol-1-yl-phenoxymethyl)-thiazol-2-yl]-piperidin-1-yl}-pyrimidine at 3 μM.
Background: TR-FRET usually uses a lanthanide donor and a delayed reading to cut background.

As to `FC(F)(F)c1cnc(N2C3CCC2CC(n2ncc(COc4ccc(-n5cnnn5)nc4)n2)C3)nc1` (stereo not drawn) [Example 71, exo-3-(4-((6-(1H-Tetrazol-1-yl)pyridin-3-yloxy)methyl)-2H-1,2,3-triazol-2-yl)-8-(5-(trifluoromethyl)pyrimidin-2-yl)-8-azabicyclo[3.2.1]octane], the “% activity at 3 μM” value came out at 70.78%.

With `CC(C)(C)OC(=O)N1C2CCC1CC(n1ncc(COc3ccc(-n4cnnn4)nc3)n1)C2` (stereo not drawn) [Example 72, endo-tert-Butyl 3-(4-((6-(1H-tetrazol-1-yl)pyridin-3-yloxy)methyl)-2H-1,2,3-triazol-2-yl)-8-azabicyclo[3.2.1]octane-8-carboxylate], the “% activity at 3 μM” value (3 µM) came to 60.55%.

In the case of `O=C(c1ncccc1O)N1CCC(n2ncc(COc3ccc(-n4cnnn4)cc3F)n2)CC1` [Example 110, (4-(4-((2-Fluoro-4-(1H-tetrazol-1-yl)phenoxy)methyl)-2H-1,2,3-triazol-2-yl)piperidin-1-yl)(3-hydroxypyridin-2-yl)methanone], the “% activity at 3 μM” value is 1.30%.

With `Clc1cnc(N2CCC(n3ncc(COc4ccc(-n5ccnn5)cc4)n3)CC2)nc1` [Example 92, 2-(4-(4-((4-(1H-1,2,3-Triazol-1-yl)phenoxy)methyl)-2H-1,2,3-triazol-2-yl)piperidin-1-yl)-5-chloropyrimidine], the “% activity at 3 μM” value turned out to be 58.28%.

Regarding `CCc1cnc(N2CCC(n3cc(COc4ccc(-n5cnnn5)cc4)cn3)CC2)nc1` [Example 18, 2-(4-(4-((4-(1H-tetrazol-1-yl)phenoxy)methyl)-1H-pyrazol-1-yl)piperidin-1-yl)-5-ethylpyrimidine], the “% activity at 3 μM” value amounted to 77.67%.

As to `CC(C)(C)OC(=O)N1CCC(n2ncc(COc3ccc(S(C)(=O)=O)cc3F)n2)CC1` [Example 4, 4-[4-(2-Fluoro-4-methanesulfonyl-phenoxymethyl)-[1,2,3]triazol-2-yl]-piperidine-1-carboxylic acid tert-butyl ester], the “% activity at 3 μM” value amounted to 79.18%.

`CCOC(=O)CCCc1cnc(N2CCC(n3ncc(COc4ccc(-n5cnnn5)nc4)n3)CC2)nc1` [Example 58, Ethyl 4-(2-(4-(4-((6-(1H-tetrazol-1-yl)pyridin-3-yloxy)methyl)-2H-1,2,3-triazol-2-yl)piperidin-1-yl)pyrimidin-5-yl)butanoate]: the “% activity at 3 μM” value is reported as 79.55%.

Take `COC(=O)[C@H]1C[C@H](n2ncc(COc3ccc(-n4cnnn4)nc3)n2)CCN1C(=O)OC(C)(C)C` (relative stereo) [Example 59]: the “% activity at 3 μM” value is given as 33.25%.

`Clc1cnc(N2CCC(n3ncc(COc4ccc(-n5cncn5)cc4)n3)CC2)nc1` [Example 93, 2-(4-(4-((4-(1H-1,2,4-Triazol-1-yl)phenoxy)methyl)-2H-1,2,3-triazol-2-yl)piperidin-1-yl)-5-chloropyrimidine]: the “% activity at 3 μM” value came out at 50.84%.

On to `CS(=O)(=O)c1ccc(OCc2cnn(C3CCN(c4ncc(Cl)cn4)CC3)n2)cc1` [Example 95, 5-Chloro-2-(4-(4-((4-(Methylsulfonyl)phenoxy)methyl)-2H-1,2,3-triazol-2-yl)piperidin-1-yl)pyrimidine], for which the “% activity at 3 μM” value was determined as 51.03%.

`Cc1sc(OCc2cnn(C3CCN(c4ncc(Cl)cn4)CC3)n2)nc1-c1ccncc1` [Example 91, 2-((2-(1-(5-Chloropyrimidin-2-yl)piperidin-4-yl)-2H-1,2,3-triazol-4-yl)methoxy)-5-methyl-4-(pyridin-4-yl)thiazole]: the “% activity at 3 μM” value came to 5.82%.

Consider `O=C(c1ncc(Br)cn1)N1CCC(n2ncc(COc3ccc(-n4cnnn4)nc3)n2)CC1` [Example 62, (4-(4-((6-(1H-tetrazol-1-yl)pyridin-3-yloxy)methyl)-2H-1,2,3-triazol-2-yl)piperidin-1-yl)(5-bromopyrimidin-2-yl)methanone], for which the “% activity at 3 μM” value is on record as 32.06%.

For the compound `Clc1cnc(N2CCC(n3ncc(COc4ccccc4-c4nnco4)n3)CC2)nc1` [Example 96, 5-Chloro-2-{4-[4-(2-[1,3,4]oxadiazol-2-yl-phenoxymethyl)-[1,2,3]triazol-2-yl]-piperidin-1-yl}-pyrimidine], the “% activity at 3 μM” value is 28.90%.

In the case of `O=C(c1ccccn1)N1CCC(n2ncc(COc3ccc(-n4cnnn4)cc3F)n2)CC1` [Example 108, (4-(4-((2-Fluoro-4-(1H-tetrazol-1-yl)phenoxy)methyl)-2H-1,2,3-triazol-2-yl)piperidin-1-yl)(pyridin-2-yl)methanone], the “% activity at 3 μM” value turned out to be 41.78%.

`Cc1ncccc1OCc1cnn(C2CCN(c3ncc(C(F)(F)F)cn3)CC2)n1` [Example 48]: the “% activity at 3 μM” value was found to be 83.24%.

As for `CC1CC(n2ncc(COc3ccc(-n4cnnn4)cc3F)n2)CCN1c1ncc(C(F)(F)F)cn1` (stereo not shown) [Example 70, 2-(4-(4-((2-Fluoro-4-(1H-tetrazol-1-yl)phenoxy)methyl)-2H-1,2,3-triazol-2-yl)-2-methylpiperidin-1-yl)-5-(trifluoromethyl)pyrimidine], the “% activity at 3 μM” value came to 66.77%.

In the case of `CCCCS(=O)(=O)N1CCC(n2ncc(COc3ccc(-n4cnnn4)nc3)n2)CC1` [Example 46, 5-((2-(1-(Butylsulfonyl)piperidin-4-yl)-2H-1,2,3-triazol-4-yl)methoxy)-2-(1H-tetrazol-1-yl)pyridine], the “% activity at 3 μM” value is on record as 79.78%.

Turning to `CCOC(=O)c1cnc(N2CCC(n3ncc(COc4ccc(S(C)(=O)=O)cc4F)n3)CC2)nc1` [Example 105, Ethyl 2-(4-(4-((2-fluoro-4-(methylsulfonyl)phenoxy)methyl)-2H-1,2,3-triazol-2-yl)piperidin-1-yl)pyrimidine-5-carboxylate], the “% activity at 3 μM” value turned out to be 10.65%.

Take `CCc1cnc(N2CCC(n3ncc(COc4ccc(-n5cnnn5)cc4F)c3C(F)(F)F)CC2)nc1` [Example 68, 5-Ethyl-2-(4-(4-((2-fluoro-4-(1H-tetrazol-1-yl)phenoxy)methyl)-5-(trifluoromethyl)-1H-pyrazol-1-yl)piperidin-1-yl)pyrimidine]: the “% activity at 3 μM” value is given as 74.11%.

On to `Fc1cc(-n2cnnn2)ccc1OCc1cnn(C2CCN(c3ncc(Cl)cn3)CC2)n1` [Example 16, 5-Chloro-2-{4-[4-(2-fluoro-4-tetrazol-1-yl-phenoxymethyl)-[1,2,3]triazol-2-yl]-piperidin-1-yl}-pyrimidine], for which the “% activity at 3 μM” value came out at 70.31%.

Regarding `CC(C)(C)OC(=O)N1CCC(n2ncc(COc3ccc(-n4cnnn4)cc3)n2)CC1` [Example 3, 4-[4-(4-Tetrazol-1-yl-phenoxymethyl)-[1,2,3]triazol-2-yl]-piperidine-1-carboxylic acid tert-butyl ester], the “% activity at 3 μM” value came to 79.02%.

On to `CCOC(=O)c1cnc(N2CCC(n3ncc(COc4ccc(-n5cnnn5)nc4)n3)CC2)nc1` [Example 60], for which the “% activity at 3 μM” value came out at 27.86%.
